The values below come from patent US7022696B2, “Piperazino-derivatives and their use as PDE4 inhibitor” (Altana Pharma AG, priority 2001, dated 2006).

As for `COc1ccc(C2=NN(c3ccc(C(=O)N4CCN(CCN5CCOCC5)CC4)cc3)C(=O)[C@@H]3CC=CC[C@H]23)c2c1OC(C)(C)C2.Cl.Cl` [Compound 20, (4aS,8aR)-4-(7-Methoxy-2,2-dimethyl-2,3-dihydro-benzofuran-4-yl)-2-(4-{1-[4-(2-morpholin-4-yl-ethyl)-piperazin-1-yl]-methanoyl}-phenyl)-4a,5,8,8a-tetrahydro-2H-phthalazin-1-one dihydrochloride], the melting point is 271 °C (dec.).

Take `COc1ccc(C2=NN(Cc3ccc(C(=O)N4CCN(CCN5CCOCC5)CC4)cc3)C(=O)[C@H]3CC=CC[C@@H]23)c2c1OC(C)(C)C2.Cl.Cl` (relative stereo): the melting point was in the range of 210 to 211 °C.

In turn, `CCOC(=O)N1CCN(C(=O)c2ccc(N3N=C(c4ccc(OCC)c(OCC)c4)[C@H]4CC=CC[C@H]4C3=O)cc2)CC1` [Compound 7, 4-(1-{4-[(4aS,8aR)-4-(3,4-Diethoxyphenyl)-1-oxo-4a,5,8,8a-tetrahydro-1H-phthalazin-2-yl]-phenyl}-methanoyl)-piperazine-1-carboxylic acid ethyl ester] yielded a melting point of 146 to 147 °C.

As for `COc1ccc(C2=NN(c3ccc(C(=O)N4CCN(CC(=O)N(C)C)CC4)cc3)C(=O)[C@@H]3CC=CC[C@H]23)cc1OC.Cl`, the melting point is 93 to 94 °C.

`CCOc1ccc(C2=NN(c3ccc(C(=O)N4CCN(CCN5CCCC5)CC4)cc3)C(=O)[C@@H]3CC=CC[C@H]23)cc1OCC.Cl.Cl` [Compound 24, (4aS,8aR)-4-(3,4-Diethoxy-phenyl)-2-(4-{1-[4-(2-pyrrolidin-1-yl-ethyl)-piperazin-1-yl]-methanoyl}-phenyl)-4a,5,8,8a-tetrahydro-2H-phthalazin-1-one dihydrochloride] gave a melting point of 185 to 186 °C.

The compound `CCOc1ccc(C2=NN(c3ccc(C(=O)N4CCN(c5nc(-c6ccccc6)ns5)CC4)cc3)C(=O)[C@@H]3CC=CC[C@H]23)cc1OCC` [Compound 17, (4aS,8aR)-4-(3,4-Diethoxyphenyl)-2-(4-{1-[4-(3-phenyl-1,2,4-thiadiazol-5-yl)-piperazin-1-yl]-methanoyl}-phenyl)-4a,5,8,8a-tetrahydro-2H-phthalazin-1-one] showed a melting point of 168 to 169 °C.

Compound `COc1ccc(C2=NN(Cc3ccc(C(=O)N4CCN(CCCN(C)C)CC4)cc3)C(=O)[C@H]3CC=CC[C@@H]23)c2c1OC(C)(C)C2.Cl.Cl` (relative stereo) yielded a melting point of 247 to 249 °C.

As to `CCOc1ccc(C2=NN(c3ccc(C(=O)N4CCN(CCCN(C)C)CC4)cc3)C(=O)[C@@H]3CC=CC[C@H]23)cc1OCC.Cl.Cl`, the melting point is 248 °C (dec.).

In turn, `CCOc1ccc(C2=NN(c3ccc(C(=O)N4CCN(c5ccccc5)CC4)cc3)C(=O)[C@@H]3CC=CC[C@H]23)cc1OCC.Cl` displayed a melting point of 146 to 147 °C.

Regarding `CCOc1ccc(C2=NN(c3ccc(C(=O)N4CCN(c5cccc6[nH]ccc56)CC4)cc3)C(=O)[C@@H]3CC=CC[C@H]23)cc1OCC.Cl` [Compound 21, (4aS,8aR)-4-(3,4-Diethoxy-phenyl)-2-(4-{1-[4-(1H-indol-4-yl)-piperazin-1-yl]-methanoyl}-phenyl)-4a,5,8,8a-tetrahydro-2H-phthalazin-1-one hydrochloride], the melting point fell in the range of 142 to 145 °C.

By melting point is commonly meant the temperature of the solid-liquid transition.
